The results in this text go back to patent publication US20260125400A1, “TYK2 DEGRADERS AND USES THEREOF” (Kymera Therapeutics, Inc., priority 2023, published 2026).

Some results are limits rather than exact numbers.

For the assay, the target named is T1, TYK2 (Homo sapiens, UniProt P29597).
T1 construct: Degradation of TYK2 in cells was quantitatively measured using Meso Scale Discovery (MSD) technology; endogenous in cells; host or cells: OCI-LY10
The experiment in a line: TYK2 MSD degradation in OCI-LY10 cells. In kind it is cell-based. The following applies: TYK2 degradation in OCI-LY10 cells, 4 to 24 hours incubation; for DC50: read-out: TYK2 MSD OCI-LY10 Rel-DC50. As to the method: Example 7. TYK2 MSD Degradation
Degradation of TYK2 in cells was quantitatively measured using Meso Scale Discovery (MSD) technology. OCI-LY10 cells were seeded in 96-well plates with a density of 0.4 million cells per well in 100 μl fresh media. Compounds were then added to the assay plates with a final top concentration of 1 to 10 μM in a 1:3 dilution series with total of 9 doses. The assay plates were then incubated for 4 to 24 hours at 37° C. under […]. The assay plates were then centrifuged for 5 minutes, and the cell pellets were treated with 100 μl/well RIPA lysis buffer (Boston Bioproducts, BP-115D) with protease and phosphatase inhibitors (Roche, 05892791001 and 04906837001). To prepare MSD assay plates (MSD, L15XA), the plates were coated with the capture antibody (Santa Cruz Biotechnology, SC-5271) in PBS, at 40 μl/well. The plates were then incubated overnight at 4° C., washed 3 times with 150 μl/well TBST buffer (Cell Signaling Technology, 9997S) and blocked with 150 μl/well blocking buffer (MSD, R93BA-4). Cell lysates were then added to MSD assay plates and the plates were incubated at room temperature for 1 hour. The plates were then washed 3 times with 150 μl/well TBST buffer and 25 μl/well primary detection antibody (Cell Signaling Technology, #9312). The assay plates were then incubated at room temperature for 1 hour, washed 3 times with 150 μl/well TBST buffer, and 25 μl/well secondary detection antibody, SULFO-TAG anti-rabbit antibody (MSD, R32AB-1) were added. The assay plates were then incubated at room temperature for 1 hour, washed 3 times with 150 μl/well TB ST buffer, and 150 μl/well MSD reading buffer (MSD, R92TC-2) were added. The plates were then analyzed by an MSD reader. The data was analyzed by GraphPad Prism and the dose dependent TYK2 degradation was fit using the four-parameter inhibitor vs. response nonlinear regression.
The letter codes for TYK2 DC50 include: A (<1 nM); B (i to <10 nM); C (10 to 100 nM); D (>100 nM); and E (not tested). The letter codes for TYK2 Dmax % include: A (>90%); B (90 to >75%); C (75 to 50%); D (<50%); and E (not tested).

T1 sequence (P29597 whole entry): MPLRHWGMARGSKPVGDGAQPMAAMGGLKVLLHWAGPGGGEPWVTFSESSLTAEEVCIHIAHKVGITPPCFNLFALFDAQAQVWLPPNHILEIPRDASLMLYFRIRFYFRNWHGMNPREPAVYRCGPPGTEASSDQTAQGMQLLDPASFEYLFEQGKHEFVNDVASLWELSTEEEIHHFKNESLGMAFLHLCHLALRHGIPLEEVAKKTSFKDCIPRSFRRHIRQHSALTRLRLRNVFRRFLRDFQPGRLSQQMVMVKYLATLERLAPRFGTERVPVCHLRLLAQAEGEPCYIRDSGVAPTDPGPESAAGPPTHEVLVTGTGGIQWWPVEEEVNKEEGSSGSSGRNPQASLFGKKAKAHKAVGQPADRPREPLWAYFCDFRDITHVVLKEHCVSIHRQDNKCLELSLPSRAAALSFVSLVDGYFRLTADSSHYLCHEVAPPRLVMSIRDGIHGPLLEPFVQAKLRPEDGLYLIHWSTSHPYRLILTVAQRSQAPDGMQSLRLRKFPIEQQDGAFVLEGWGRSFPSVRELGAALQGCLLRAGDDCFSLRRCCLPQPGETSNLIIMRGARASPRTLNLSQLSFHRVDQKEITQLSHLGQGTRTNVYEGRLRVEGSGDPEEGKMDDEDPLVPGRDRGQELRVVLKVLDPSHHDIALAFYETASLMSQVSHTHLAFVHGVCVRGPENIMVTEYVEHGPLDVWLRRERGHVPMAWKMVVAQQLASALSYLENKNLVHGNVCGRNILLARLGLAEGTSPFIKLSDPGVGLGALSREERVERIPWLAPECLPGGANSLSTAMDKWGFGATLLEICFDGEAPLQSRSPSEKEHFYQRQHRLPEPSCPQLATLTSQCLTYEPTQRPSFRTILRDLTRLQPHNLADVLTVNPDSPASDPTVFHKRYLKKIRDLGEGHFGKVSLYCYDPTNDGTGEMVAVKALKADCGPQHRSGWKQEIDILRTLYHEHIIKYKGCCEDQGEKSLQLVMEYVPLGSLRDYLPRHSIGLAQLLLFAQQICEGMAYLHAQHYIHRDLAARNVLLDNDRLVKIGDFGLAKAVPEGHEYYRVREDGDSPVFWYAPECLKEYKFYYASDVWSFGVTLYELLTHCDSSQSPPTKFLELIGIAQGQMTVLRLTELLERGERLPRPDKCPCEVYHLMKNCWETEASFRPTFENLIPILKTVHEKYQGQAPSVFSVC

With `CCNC(=O)c1nnc(Nc2ccc(CN3CC4(CCN(c5cccc6c5n(C)c(=O)n6C5CCC(=O)NC5=O)CC4(F)F)C3)cn2)cc1Nc1cccc(F)c1OC` (stereo not shown) [I-92], the “TYK2 MSD OCI-LY10 Dmax %” value was “C (C (75 to 50%))” and the DC50 was 10 to 100 nM.
On the same counts, the results for `CNc1cc(N2CCc3c(N4CCC5(CCN(C(=O)c6ccc(Cl)c(N7CCC(=O)NC7=O)c6)CC5)CC4)cccc32)nn2c(C(=O)N[C@@H]3C[C@@H]3F)cnc12` [I-93] are “D (D (<50%))” and less than 10 nM.
On the same counts, the results for `CNc1cc(N2CCc3c(N4CCN(C5CCN(C(=O)c6ccc(Cl)c(N7CCC(=O)NC7=O)c6)CC5)CC4)cccc32)nn2c(C(=O)N[C@@H]3C[C@@H]3F)cnc12` [I-94] are “D (D (<50%))” and more than 100 nM.
On the same counts, the results for `CNc1cc(N2CCc3c(-c4ccc(CN5CCC6(CC5)CCN(Cc5ccc(Cl)c(N7CCC(=O)NC7=O)c5)CC6)cn4)cccc32)nn2c(C(=O)N[C@@H]3C[C@@H]3F)cnc12` [I-95] are “D (D (<50%))” and more than 100 nM.
Regarding `CNc1cc(N2CCc3c(-c4ccc(CN5CCC6(CCC(Oc7ccc(Cl)c(N8CCC(=O)NC8=O)c7)CC6)CC5)cn4)cccc32)nn2c(C(=O)N[C@@H]3C[C@@H]3F)cnc12` [I-96], the “TYK2 MSD OCI-LY10 Dmax %” value is on record as “D (D (<50%))” and the DC50 was less than 10 nM.
On the same counts, the results for `CNc1cc(-c2cccc(N3CCN(Cc4ccc5c(c4)n(C)c(=O)n5C4CCC(=O)NC4=O)CC3)n2)nn2c(C(=O)NC3CC3)cnc12` (stereo not shown) [I-198] are “D (D (<50%))” and more than 100 nM.
On the same counts, the results for `CNc1cc(N2CCc3c(CN4CCC(N5CCC6(CCN(c7ccc8c(c7)n(C)c(=O)n8C7CCC(=O)NC7=O)CC6)CC5)C(F)(F)C4)cccc32)nn2c(C(=O)N[C@@H]3C[C@@H]3F)cnc12` (stereo partly shown) [I-237] are “B (B (90 to >75%))” and less than 1 nM.
On the same counts, the results for `CNc1cc(N2CCc3c(C#CCN4CC5(CCN(C(=O)c6ccc(Cl)c(N7CCC(=O)NC7=O)c6)CC5(F)F)C4)cccc32)nn2c(C(=O)N[C@@H]3C[C@@H]3F)cnc12` [I-241] are “C (C (75 to 50%))” and less than 10 nM.
On to `CNc1cc(N2CCc3c(C#CCN4CCC5(CCN(C(=O)c6ccc(Cl)c(N7CCC(=O)NC7=O)c6)CC5)C(F)(F)C4)cccc32)nn2c(C(=O)N[C@@H]3C[C@@H]3F)cnc12` [I-242], for which the “TYK2 MSD OCI-LY10 Dmax %” value was “C (C (75 to 50%))” and the DC50 was less than 10 nM.
On the same counts, the results for `CNc1cc(N2CCc3c(-c4ccc(CN5CCC(N6CCC(Oc7ccc(Cl)c(N8CCC(=O)NC8=O)c7)CC6)C(F)(F)C5)cn4)cccc32)nn2c(C(=O)N[C@@H]3C[C@@H]3F)cnc12` (stereo partly shown) [I-245] are “D (D (<50%))” and more than 100 nM.
On the same counts, the results for `CNc1cc(N2CCc3c(-c4ccc(CN5CC6(CCN(C(=O)c7ccc(Cl)c(N8CCC(=O)NC8=O)c7)CC6)C5)nc4)cccc32)nn2c(C(=O)N[C@@H]3C[C@@H]3F)cnc12` [I-247] are “B (B (90 to >75%))” and less than 10 nM.
On the same counts, the results for `CNc1cc(N2CCc3c(-c4cc(N5CCC6(CCN(C(=O)c7ccc(Cl)c(N8CCC(=O)NC8=O)c7)CC6)CC5)ccn4)cccc32)nn2c(C(=O)N[C@@H]3C[C@@H]3F)cnc12` [I-248] are “C (C (75 to 50%))” and less than 10 nM.
Regarding `CNc1cc(N2CCc3c(-c4ccc(N5CCC6(CCN(C(=O)c7ccc(Cl)c(N8CCC(=O)NC8=O)c7)CC6)CC5)cn4)cccc32)nn2c(C(=O)N[C@@H]3C[C@@H]3F)cnc12` [I-249], the “TYK2 MSD OCI-LY10 Dmax %” value is recorded as “D (D (<50%))” and the 50% degradation concentration (DC50) is more than 100 nM.
As to `CNc1cc(N2CCc3c(-c4ncc(CN5CC6(CCN(C(=O)c7ccc(Cl)c(N8CCC(=O)NC8=O)c7)CC6)C5)cn4)cccc32)nn2c(C(=O)N[C@@H]3C[C@@H]3F)cnc12` [I-250], the “TYK2 MSD OCI-LY10 Dmax %” value was “B (B (90 to >75%))” and the DC50 is less than 1 nM.
As for `CNc1cc(N2CCc3c(-c4ccc(CN5CCC6(CCC(Nc7ccc(Cl)c(C8CCC(=O)NC8=O)c7)CC6)CC5)cn4)cccc32)nn2c(C(=O)N[C@@H]3C[C@@H]3F)cnc12` (stereo partly shown) [I-251], the “TYK2 MSD OCI-LY10 Dmax %” value was “C (C (75 to 50%))” and the DC50 is less than 10 nM.
Turning to `CNc1cc(N2CCc3c(-c4ccc(CC5CC6(CCN(C(c7ccc(Cl)c(N8CCC(=O)NC8=O)c7)C(F)(F)F)CC6)C5)cn4)cccc32)nn2c(C(=O)N[C@@H]3C[C@@H]3F)cnc12` (stereo partly shown) [I-272], the “TYK2 MSD OCI-LY10 Dmax %” value is recorded as “D (D (<50%))” and the DC50 was more than 100 nM.
As to `CNc1cc(N2CCc3c(-c4ccc(CN5CCC(N6CC(N7CCN(c8cccc9c8n(C)c(=O)n9C8CCC(=O)NC8=O)CC7)C6)C(F)(F)C5)cn4)cccc32)nn2c(C(=O)N[C@@H]3C[C@@H]3F)cnc12` (stereo partly shown) [I-277], the “TYK2 MSD OCI-LY10 Dmax %” value is “B (B (90 to >75%))” and the DC50 is less than 1 nM.
On the same counts, the results for `CNc1cc(N2CCc3c(-c4ccc(CN5CCC(N6CC7(CCN(c8cccc9c8n(C)c(=O)n9C8CCC(=O)NC8=O)CC7)C6)C(F)(F)C5)cn4)cccc32)nn2c(C(=O)N[C@@H]3C[C@@H]3F)cnc12` (stereo partly shown) [I-279] are “B (B (90 to >75%))” and less than 10 nM.
Regarding `CNc1cc(N2CCc3c(-c4ccc(CN5CCC(N6CCC7(CC6)CN(c6cccc8c6n(C)c(=O)n8C6CCC(=O)NC6=O)C7)C(F)(F)C5)cn4)cccc32)nn2c(C(=O)N[C@@H]3C[C@@H]3F)cnc12` (stereo partly shown) [I-280], the “TYK2 MSD OCI-LY10 Dmax %” value is listed as “B (B (90 to >75%))” and the 50% degradation concentration (DC50) is less than 10 nM.
With `CNc1cc(N2CCc3c(-c4ccc(CN5CCC(N6CCC7(CCN(c8cccc9c8n(C)c(=O)n9C8CCC(=O)NC8=O)CC7)CC6)C(F)(F)C5)cn4)cccc32)nn2c(C(=O)N[C@@H]3C[C@@H]3F)cnc12` (stereo partly shown) [I-281], the “TYK2 MSD OCI-LY10 Dmax %” value is recorded as “C (C (75 to 50%))” and the DC50 was less than 10 nM.
On the same counts, the results for `CNc1cc(N2CCc3c(-c4ccc(CN5CCC(N6CC(N7CCN(c8ccc9c(c8)n(C)c(=O)n9C8CCC(=O)NC8=O)CC7)C6)C(F)(F)C5)cn4)cccc32)nn2c(C(=O)N[C@@H]3C[C@@H]3F)cnc12` (stereo partly shown) [I-282] are “B (B (90 to >75%))” and less than 1 nM.
On the same counts, the results for `CNc1cc(N2CCc3c(N4CCN(C5CC6(CCN(C(=O)c7ccc(Cl)c(N8CCC(=O)NC8=O)c7)CC6)C5)CC4)cccc32)nn2c(C(=O)N[C@@H]3C[C@@H]3F)cnc12` [I-283] are “D (D (<50%))” and more than 100 nM.
On the same counts, the results for `CNc1cc(N2CCc3c(N4CCN(C5CCC6(CC5)CCN(C(=O)c5ccc(Cl)c(N7CCC(=O)NC7=O)c5)CC6)CC4)cccc32)nn2c(C(=O)N[C@@H]3C[C@@H]3F)cnc12` [I-284] are “D (D (<50%))” and more than 100 nM.
For `CNc1cc(N2CCc3c(N4CCN(C5CCN(C6CCN(C(=O)c7ccc(Cl)c(N8CCC(=O)NC8=O)c7)CC6)CC5)CC4)cccc32)nn2c(C(=O)N[C@@H]3C[C@@H]3F)cnc12` [I-287], the “TYK2 MSD OCI-LY10 Dmax %” value is recorded as “D (D (<50%))” and the DC50 is more than 100 nM.
As for `CNc1cc(N2CCc3c(N4CCN(C5CN(C6CCN(C(=O)c7ccc(Cl)c(N8CCC(=O)NC8=O)c7)CC6)C5)CC4)cccc32)nn2c(C(=O)N[C@@H]3C[C@@H]3F)cnc12` [I-288], the “TYK2 MSD OCI-LY10 Dmax %” value is “D (D (<50%))” and the DC50 was more than 100 nM.
On the same counts, the results for `CNc1cc(N2CCc3c(-c4ccc(CN5CCC6(CCN(Cc7ccc(Cl)c(N8CCC(=O)NC8=O)c7)CC6)C(F)(F)C5)cn4)cccc32)nn2c(C(=O)N[C@@H]3C[C@@H]3F)cnc12` [I-289] are “D (D (<50%))” and more than 100 nM.
On the same counts, the results for `CNc1cc(N2CCc3c(CN4CCC(N5CCC(Oc6ccc(Cl)c(N7CCC(=O)NC7=O)c6)CC5)C(F)(F)C4)cccc32)nn2c(C(=O)N[C@@H]3C[C@@H]3F)cnc12` (stereo partly shown) [I-291] are “D (D (<50%))” and more than 100 nM.
On the same counts, the results for `CNc1cc(N2CCc3c(-c4ccc(CN5CC6(C5)CN(C(=O)c5ccc(Cl)c(N7CCC(=O)NC7=O)c5)C6)cn4)cccc32)nn2c(C(=O)NC3CC3F)cnc12` (stereo not shown) [I-295] are “D (D (<50%))” and less than 10 nM.
Take `CNc1cc(N2CCc3c(-c4ccc(CN5CC6(CCN(C(=O)c7ccc(Cl)c(N8CCC(=O)NC8=O)c7)C6)C5)cn4)cccc32)nn2c(C(=O)NC3CC3F)cnc12` (stereo not shown) [I-296]: the “TYK2 MSD OCI-LY10 Dmax %” value is on record as “C (C (75 to 50%))” and the DC50 is less than 1 nM.

In general, DC50 refers to the concentration at which degradation of the target reaches its halfway point.
